Here are results for one compound from US10208028B1, “Methods of treating cancer” (Macau University of Science and Technology, priority 2017, dated 2019).

Test [1] deals with A549 cells. As to the kind of experiment: Colony formation assay. Type of test: cell-based. To be noted: A549 cells, 0.5, 1, 1.5 μM, 7 days, versus control group. As for the experimental part: Cell survival was assessed by colony formation as previously described. A549 cells were seeded to six-well plate (500-1000/well). Then cells were exposed to various doses of compound C620-0696. After 7 days, colonies were fixed with 4% paraformaldehyde for 15 minutes and stained with crystal violet for 10-15 minutes. Finally, the staining solution was slowly washed off with water and the cells were air dried.
To determine the effect of the compound C620-0696 on A549 cell growth behavior, a colony formation assay was performed. A549 cells were treated by different concentrations of compound C620-0696, i.e. 0 (control group), 0.5, 1, 1.5 μM.

Test [2] relates to A549 cells. As to the kind of experiment: Wound healing assay. Type of test: cell-based. To be noted: 24 and 48 hours postinjury, versus control cells. As for the experimental part:
A549 cells were seeded onto 6 well plates. When the cell confluence reached about >90% and scratch wounds were made by scraping the cell layer across each plate using the tip of 200 μl pipette. Wounded cultures were incubated in medium for 48 hr, and then visualized by Olympus inverted microscopy to assess cell migration ability.
To evaluate the effect of C620-0696 on cell migration and cellular processes in NSCLC, the wound healing assay was employed to assess the directional cell motility in A549 cells.

The target of test [3] is bromodomain of BPTF (Homo sapiens, UniProt Q12830). Kind of test: Kinetic binding analysis by biolayer interferometry. The method, then: The Octet Red96 system (Forte Bio, Pall) was used to determine the binding between compound C620-0696 and BPTF. BPTF protein was loaded to saturation onto anti-His capture sensors (ForteBio), then was placed for 2 min in wells containing C620-0696 (concentrations: 3.125, 6.25, 12.5, 25, 50, 100, 200 μM). The baseline and dissociation steps were carried out in the kinetics buffer as per the instrument manufacturer's recommendations. Kinetic binding data in all cases were adequately described accurately by a 1:1 binding model.
FIG. 2A is a graph 200 showing the binding affinity of the bromodomain of BPTF with compound C620-0696 by Biolayer interferometry assay (BLI). BLI is a label-free technology for measuring biomolecular interactions. The bromodomain was immobilized on the streptavidin (SA) biosensors, and then mixed with different concentration of compound C620-0696 at 3.125, 6.25, 12.5, 25, 50, 100, 200 μM.
(In general: BLI is a label-free optical method that tracks binding on a fibre tip over time.)

The test system of test [4] is A549 cells. As to the kind of experiment: MTT assay cell viability. The settings on record: Homo sapiens, 72 hr treatment. Type of test: cell-based. The method, then: (§1) A549 and H358 cell lines were stored in liquid nitrogen. A549 and H358 cells were cultured by RPMI 1640 medium after recovery. RPMI 1640 medium supplemented with 10% fetal bovine serum and 100 units/mL penicillin and 100 μg/mL streptomycin. A549 and H358 cells were grown at 37° C. incubator with 5% CO2.
(§2) All compounds were dissolved in dimethyl sulfoxide (DMSO) and stored at −40° C. HCC78 cells were plated in 96-well micro-plate and plated 3000 cells/well. Then the 96-well micro-plate was put back in the incubator and overnight for cell adhesion. After cell adhesion, the medium was removed and each well was added with 100 μl drug-containing medium. There were three different concentrations for each drug and three duplicate wells for each concentration. Then cell adhesion was cultured overnight for 72 hr. After 72 hr, each well was added with 10 μl of MTT solution and the 96-well plate was put back in the incubator for 4 hr. Then 100 μl of the SDS solution (10% SDS and 0.1 mM HCL) was added to each well and incubated at 37° C. for 4 hr. Finally the absorbance of the plate was measured by an absorbance reader (Tecan, Morrisvill, N.C., USA).
(§3) FIG. 3B is a graph 302 showing the effect of compound C620-0696 on the cell viability of A549 cells. A549 cells were treated by different concentrations of compound C620-0696, i.e. 3, 6, 9 and 12 μM for 72 hr. […]

Test [5] concerns H358 cells. Kind of test: MTT assay cell viability. Type of test: cell-based. The settings on record: Homo sapiens, NCI-H358, 72 hr treatment. As for the experimental part:
as §1, §2, §3
(Tetrazolium assays rely on reduction of a dye to a coloured formazan, in cell work by metabolically active cells.)

Test [6] has as its system c-MYC. Kind of test: Western blot analysis, c-MYC. Type of test: cell-based. The settings on record: H358 cells, 3, 6, 9 μM, 24 hr. The method, then: (§4) The cell culture dish was placed in the ice and washed the cells with PBS. Then the PBS was removed to ensure that the cells were lysed in cell lysis buffer containing protease and phosphatase inhibitors. Adherent cells were scraped off from the plate and transferred the lysate into a new tube. The tube was maintained at a constant agitation for 15 min in the ice. Then the tubes were centrifuged at 4° C. 12000 g for 5 min. The supernatant was transferred into a new tube and 4× loading buffer was added to the supernatant. Each sample was boiled at 100° C. for 5 min. Equal amounts of protein (50 μg) were loaded into the wells of a SDS-PAGE gel, along with 3 μl markers. The gel was placed in transfer buffer in sandwich and was transferred to a nitrocellulose filter membrane. After transferring for 3 hr in an ice bucket at a constant current of 300 mA, the membranes were blocked in 5% non-fat milk in TBST at room temperature for 1 hr. The membrane was incubated overnight with the primary antibody solution, against the target protein at 4° C. The blot was rinsed 3 times within 5 min with TBST. The secondary antibody solution was incubated for 1 hr at room temperature. […]
(§5) To determine whether the induction of apoptosis in NSCLC cells was contributed by compound C620-0696-mediated growth inhibition, cleaved PARP1 in compound C620-0696 treated H358 cells was detected. […]
A general note: A western blot detects proteins with antibodies after separation by electrophoresis.

In test [7] the test system is Cyclin D1. Kind of test: Western blot analysis, cyclin D1. Type of test: cell-based. The settings on record: H358 cells, 3, 6, 9 μM, 24 hr. The method, then:
as §4, §5

The test system of test [8] is PARP1. Kind of test: Western blot analysis, cleaved PARP1. Type of test: cell-based. To be noted: H358 cells, 9 μM, 24 hr. The method, then:
as §4, §5

For orientation: Kd means a measure of binding affinity in units of concentration. In general, IC50 refers to the midpoint of a concentration-inhibition curve.

Turning to `CN(C)CCCNc1cc(NCc2ccco2)c2noc3c2c1C(=O)c1ccccc1-3` [compound C620-0696], the colony formation result in test [1] is recorded as “significant loss of colony formation”. The “cell migration (wound healing)” value in test [2] is recorded as “migrated more slowly”. For the same compound, in test [3] (1:1 binding model), the Koff was 1.70×10^−2 S^−1. Moreover, in test [3] (3.125-200 μM, steady-state analysis, read-out: binding affinity KD), the Kd is 35.5 µM. Moreover, the IC50 in test [4] is 11.2 µM; in test [5], 6.72 µM. For the same compound, the “expression of c-MYC” value in test [6] is on record as “suppressed the expression”. In addition, the “expression of cyclin D1” value in test [7] is recorded as “reduced the expression of cyclin D1”. Besides, the “levels of cleaved PARP1” value in test [8] is reported as “significantly increased”.
